For orientation: IC50 means the concentration needed to halve the response being measured. Lower therefore signals greater potency.

In this experiment the target is Opioid receptor (Rattus norvegicus, UniProt P33533+P34975+P33535). Description: Binding affinity towards opioid receptor. The class given is protein assay.
Turning to `CN1CC2Oc3cc(O)ccc3[C@@]23CCCC1C3` (stereo partly drawn), the 50% inhibitory concentration (IC50) was 1000 nM.

In the case of `CN1CC[C@@]23CC1CC[C@@H]2Oc1c(O)cccc13`, the IC50 worked out at 1766 nM.

Take `CN1CC[C@]23CCCC1[C@H]2Oc1c(O)cccc13`: the IC50 is on record as 96 nM.

The values above are taken from ChEMBL document CHEMBL1123486, “Probes for narcotic receptor mediated phenomena. 9. Synthesis of (+/-)-(3 alpha,6a alpha,11a beta)-1,3,4,5,6,11a-hexahydro-2-methyl-2H-3,6a- methanobenzofuro[2,3-c]azocin-10-ol, an oxide-bridged 5-(m-hydroxyphenyl)morphan” (J Med Chem, 1986).
